Data reported in patent publication US20170166555A1, “FUNCTIONALISED AND SUBSTITUTED INDOLES AS ANTI-CANCER AGENTS” (Novogen Limited, priority 2013, published 2017).

What was measured:
Test in all cases: Anti-proliferative assay, cell-titre luminescent reagent, 72 h (GVK-BIO)
Assay type in all cases: cell-based
[1] = test system: DU145 prostate cancer cells; conditions: Homo sapiens, DU-145, 72 h, 30, 3, 0.3 and 0.03 μM, linear regression (Tables 2-4)
Description: (§1) The ability of compounds 4001, 4002, 4008, 4010, 4011, 4013-4015, 4018, 4026, 4045-4113 and 4115-4127 to inhibit the proliferation of cancer cells representative of neuroblastoma, melanoma, prostate cancer, colorectal cancer, non-small cell lung carcinoma, and triple negative breast cancer was assessed. These studies were conducted by contract research (GVK-BIO). Briefly, a pre-determined number of cells as calculated from cell growth assays for each of the cell lines employed were seeded into their respective culture medium (using ATCC culture parameters—http://www.atcc.org) and cultured for 24 h at 37° C. and 5% CO2 in 96-well culture plates. Once attached, each cell line was then exposed to various concentrations of each respective analogue (30, 3, 0.3 and 0.03 μM for compounds in Tables 2, 3 and 4; 30, 10, 3, 1, 0.3 and 0.1 μM for compounds in Table 5), cultured for a further 72 h and exposed to cell-titre luminescent reagent (100 μL/well) for a further 30 min). Luminescence was captured using an EnVision multilabel reader and the data for each analogue concentration compared against no treatment control. For compounds in Tables 2-4, semi-log plots of Percent of Control versus concentration were prepared and IC50 determined using linear regression analysis. For compounds in Table 5, cell viability was normalized to control (vehicle alone) and dose-response curves, and half maximal effective concentration (EC50) values were determined using Graph Pad Prism 6 (nonlinear regression sigmoidal dose-response variable slope).

[2] = test system: SK-N-SH neuroblastoma cells; conditions: Homo sapiens, SK-N-SH, 30, 3, 0.3 and 0.03 μM, linear regression (Tables 2-4)
Description: as §1

SK-Mel-28 melanoma cells = conditions: Homo sapiens, SK-MEL-28, 72 h, 30, 3, 0.3 and 0.03 μM, linear regression (Tables 2-4)
Description: as §1

[3] = test system: A549 non-small cell lung carcinoma cells; conditions: Homo sapiens, A549, 72 h, 30, 3, 0.3 and 0.03 μM, linear regression (Tables 2-4), read-out: IC50/μM Lung (NSLC) A549
Description: as §1

[4] = test system: MDA-MB-231 triple negative breast cancer cells; conditions: Homo sapiens, MDA-MB-231, 72 h, 30, 3, 0.3 and 0.03 μM, linear regression (Tables 2-4)
Description: as §1

[5] = test system: PC3 prostate cancer cells; conditions: 30, 3, 0.3 and 0.03 μM, linear regression (Tables 2-4)
Description: as §1

[6] = test system: CaCo2 colorectal cancer cells; conditions: Homo sapiens, Caco-2, 72 h, 30, 3, 0.3 and 0.03 μM, linear regression (Tables 2-4)
Description: as §1

| IC50 [1] | IC50 [2] | IC50 (SK-Mel-28 melanoma cells) | IC50 [3] | IC50 [4] | IC50 [5] | IC50 [6] | SMILES |
| --- | --- | --- | --- | --- | --- | --- | --- |
| 4.3 µM | 4 µM | 2.6 µM | 3.1 µM | 3.7 µM | 4.2 µM | 4.2 µM | Cc1c(C)n(CCCN(C)C)c2ccc(Cc3cccc(C(=O)Nc4ccc(F)cc4)c3)cc12 [Compound 4050] |
| 4.9 µM | 4.3 µM | 3.4 µM | 4.1 µM | 4.5 µM | 17.3 µM | 16.1 µM | COc1ccc(NC(=O)c2cccc(Cc3ccc4c(c3)c(C)c(C)n4CCCN(C)C)c2)cc1 [Compound 4051] |
| 4.5 µM | 4.5 µM | 4.1 µM | 3.9 µM | 4.6 µM | 3.9 µM | 5.1 µM | COc1cccc(NC(=O)c2cccc(Cc3ccc4c(c3)c(C)c(C)n4CCCN(C)C)c2)c1 [Compound 4054] |
| 4.3 µM | 3.4 µM | 3.4 µM | 4 µM | 3 µM | 7 µM | 4.7 µM | CN(C)CCCn1ccc2cc(Oc3cccc(C(=O)Nc4ccc(F)cc4)c3)ccc21 [Compound 4056, 3-((1-(3-(dimethylamino)propyl)-1H-indol-5-yl)oxy)-N-(4-fluorophenyl)benzamide] |
| 6.4 µM | 4.9 µM | 2.7 µM | 4.4 µM | 3 µM | 8.7 µM | 10.3 µM | COc1ccc(NC(=O)c2cccc(Oc3ccc4c(ccn4CCCN(C)C)c3)c2)cc1 [Compound 4057, 3-((1-(3-(dimethylamino)propyl)-1H-indol-5-yl)oxy)-N-(4-methoxyphenyl)benzamide] |
| 3 µM | 2.3 µM | 2.5 µM | 3 µM | 3.2 µM | 2.2 µM | 3.7 µM | Cc1c(C)n(CCCN(C)C)c2ccc(Oc3cccc(C(=O)Nc4ccc(F)cc4)c3)cc12 [Compound 4061] |
| 4.4 µM | 4.8 µM | 4.3 µM | 2.3 µM | 3.7 µM | 9 µM | 6 µM | COc1ccc(NC(=O)c2cccc(Oc3ccc4c(c3)c(C)c(C)n4CCCN(C)C)c2)cc1 [Compound 4062] |

The next lines start with the compound.

| SMILES | IC50 [1] | IC50 [2] | IC50 (SK-Mel-28 melanoma cells) | IC50 [3] | IC50 [4] | IC50 [5] | IC50 [6] |
| --- | --- | --- | --- | --- | --- | --- | --- |
| Cc1c(C)n(CCCN(C)C)c2ccc(C(=O)N3CCN(CCc4ccccc4)CC3)cc12 [Compound 4018, (1-(3-(dimethylamino)propyl)-2,3-dimethyl-1H-indol-5-yl)(4-phenethylpiperazin-1-yl)methanone] | > 30 µM | > 30 µM | 67.3 µM | > 30 µM | > 30 µM | > 30 µM | > 30 µM |
| CN(C)CCCn1ccc2cc(Nc3ccc(C(=O)Nc4ccccc4)cc3)ccc21 [Compound 4026, 4-((1-(3-(dimethylamino)propyl)-1H-indol-5-yl)amino)-N-phenylbenzamide] | 5 µM | 3.7 µM | 5.9 µM | 3.8 µM | 3.5 µM | 6.1 µM | 15.4 µM |
| CN(C)CCCn1ccc2cc(Cc3cccc(C(=O)Nc4ccc(F)cc4)c3)ccc21 [Compound 4045, 3-((1-(3-(dimethylamino)propyl)-1H-indol-5-yl)methyl)-N-(4-fluorophenyl)benzamide] | 5.5 µM | 3.8 µM | 3.7 µM | 3.7 µM | 2.6 µM | 5.7 µM | 5.2 µM |
| COc1ccc(NC(=O)c2cccc(Cc3ccc4c(ccn4CCCN(C)C)c3)c2)cc1 [Compound 4046, 3-((1-(3-(dimethylamino)propyl)-1H-indol-5-yl)methyl)-N-(4-methoxyphenyl)benzamide] | 2.6 µM | 3.2 µM | 1.9 µM | 1.7 µM | 1.9 µM | 1.1 µM | 3.2 µM |
| CN(C)CCCn1ccc2cc(Cc3cccc(C(=O)Nc4ccc5c(c4)OCO5)c3)ccc21 [Compound 4047, N-(benzo[d][1,3]dioxol-5-yl)-3-((1-(3-(dimethylamino)propyl)-1H-indol-5-yl)methyl)benzamide] | 3.4 µM | 3.1 µM | 2.5 µM | 3 µM | 3 µM | 3.1 µM | 3 µM |
| CN(C)CCCn1ccc2cc(Cc3cccc(C(=O)Nc4cccc(F)c4)c3)ccc21 [Compound 4048, 3-((1-(3-(dimethylamino)propyl)-1H-indol-5-yl)methyl)-N-(3-fluorophenyl)benzamide] | 3.3 µM | 3.9 µM | 3.1 µM | 3 µM | 3.2 µM | 3.8 µM | 6.9 µM |
| COc1cccc(NC(=O)c2cccc(Cc3ccc4c(ccn4CCCN(C)C)c3)c2)c1 [Compound 4049, 3-((1-(3-(dimethylamino)propyl)-1H-indol-5-yl)methyl)-N-(3-methoxyphenyl)benzamide] | 3.3 µM | 3.3 µM | 3.1 µM | 3 µM | 3.4 µM | 3.4 µM | 3.2 µM |
| Cc1c(C)n(CCCN(C)C)c2ccc(Cc3cccc(C(=O)Nc4ccc5c(c4)OCO5)c3)cc12 [Compound 4052, N-(benzo[d][1,3]dioxol-5-yl)-3-((1-(3-(dimethylamino)propyl)-2,3-dimethyl-1H-indol-5-yl)methyl)benzamide] | 13.8 µM | 31.9 µM | 6.2 µM | 8 µM | 30 µM | 11.1 µM | 27.1 µM |
| Cc1c(C)n(CCCN(C)C)c2ccc(Cc3cccc(C(=O)Nc4cccc(F)c4)c3)cc12 [Compound 4053] | 4.3 µM | 3.8 µM | 2.5 µM | 2 µM | 2.5 µM | 3.7 µM | 4.6 µM |
| Cc1c(C)n(CCCN(C)C)c2ccc(Cc3cccc(C(=O)Nc4ccccc4)c3)cc12 [Compound 4055] | 4.5 µM | 4.6 µM | 5.1 µM | 4.7 µM | 4.7 µM | 7.9 µM | 6.8 µM |
| CN(C)CCCn1ccc2cc(Oc3cccc(C(=O)Nc4ccc5c(c4)OCO5)c3)ccc21 [Compound 4058, N-(benzo[d][1,3]dioxol-5-yl)-3-((1-(3-(dimethylamino)propyl)-1H-indol-5-yl)oxy)benzamide] | 4.7 µM | 3.4 µM | 2.7 µM | 4.7 µM | 3.8 µM | 7.2 µM | 9.7 µM |
| CN(C)CCCn1ccc2cc(Oc3cccc(C(=O)Nc4cccc(F)c4)c3)ccc21 [Compound 4059, 3-((1-(3-(dimethylamino)propyl)-1H-indol-5-yl)oxy)-N-(3-fluorophenyl)benzamide] | > 30 µM | 11.3 µM | 15.5 µM | 13.4 µM | 13.2 µM | > 30 µM | > 30 µM |
| COc1cccc(NC(=O)c2cccc(Oc3ccc4c(ccn4CCCN(C)C)c3)c2)c1 [Compound 4060] | 4 µM | 3.6 µM | 2.8 µM | 4.2 µM | 2.8 µM | 5 µM | 4 µM |
